Results from patent US20250290928A1, “METHOD, KIT AND DEVICE FOR DETECTING EXTRACELLULAR VESICLES” (priority 2022, published 2025).
Several values for one entry are separate records, joined by “and”; a condition that tells them apart may be missing. Identical values can stand only once. *: point of attachment. 5FAM = O=C1OC2(c3ccc(O)cc3Oc3cc(O)ccc32)c2ccc(C(=O)*)cc21; TQ2 = quencher

Key:
[1] = target: T1, MMP14 in the HT1080 culture supernatants and the culture medium samples (Homo sapiens, UniProt P50281); assay: Digital detection of MMP14 active component in HT1080 culture supernatants, culture media and recovered liquids in wells; type: biochemical; settings: for MMP14 active component concentration: HT1080 culture Present
T1 construct: host or cells: HT1080 culture supernatant
Method: (§1) In addition, for detection of MMP14 activity, 1 mM Custom #1 was diluted with the buffer (4) to prepare a MMP14 detection solution containing 5 μM Custom #1 and 2 μM Alexa Fluor 647.

[2] = test system: MMP14 in the HT1080 culture supernatants and the culture medium samples; assay: as above; type: biochemical, Human; settings: for original concentration in the culture supernatant / amount of the extracellular vesicles in the fraction (0.7 mL): Example 59, qEV; for original concentration in the culture supernatant: recovered from 3 mL of the culture supernatant; for amount of the extracellular vesicles in the fraction (0.7 mL): 4 h
Method: as §1

[3] = HT1080 culture supernatant recovered with exoEasy, Exo-FBS, Reaction 4 hr
[4] = HT1080 culture supernatant recovered with exoEasy, Exo-FBS, Reaction 24 hr
[5] = HT1080 culture supernatant recovered with exoEasy, MEM, Reaction 4 hr
[6] = HT1080 culture supernatant recovered with exoEasy, MEM, Reaction 24 hr
[7] = qEV recovered liquid, Exo-FBS, Fraction # 8, 4 hours of reaction
[8] = qEV recovered liquid, Exo-FBS, Fraction # 9, 4 hours of reaction
[9] = qEV recovered liquid, Exo-FBS, Fraction # 10, 4 hours of reaction
[10] = qEV recovered liquid, Exo-FBS, Fraction # 11, 4 hours of reaction
[11] = qEV recovered liquid, Exo-FBS, Fraction # 12, 4 hours of reaction
[12] = qEV recovered liquid, Exo-FBS, Fraction # 13, 4 hours of reaction
[13] = qEV recovered liquid, Exo-FBS, Fraction # 14, 4 hours of reaction
[14] = qEV recovered liquid, Exo-FBS, Fraction # 15, 4 hours of reaction
[15] = qEV recovered liquid, MEM, Fraction # 7, 4 hours of reaction
[16] = qEV recovered liquid, MEM, Fraction # 8, 4 hours of reaction
[17] = qEV recovered liquid, MEM, Fraction # 9, 4 hours of reaction
[18] = qEV recovered liquid, MEM, Fraction # 10, 4 hours of reaction
[19] = qEV recovered liquid, MEM, Fraction # 11, 4 hours of reaction
[20] = qEV recovered liquid, MEM, Fraction # 12, 4 hours of reaction
[21] = qEV recovered liquid, MEM, Fraction # 13, 4 hours of reaction
[22] = qEV recovered liquid, MEM, Fraction # 14, 4 hours of reaction
[23] = Experiment condition (I): FBS, HT1080 culture Present, only centrifugation, Reaction 4 hr
[24] = Experiment condition (I): FBS, HT1080 culture Present, only centrifugation, Reaction 24 hr
[25] = Experiment condition (II): FBS, HT1080 culture Present, centrifugation + filtration, Reaction 4 hr
[26] = Experiment condition (II): FBS, HT1080 culture Present, centrifugation + filtration, Reaction 24 hr
[27] = Experiment condition (III): FBS culture medium, HT1080 culture Absent, Reaction 4 hr
[28] = Experiment condition (III): FBS culture medium, HT1080 culture Absent, Reaction 24 hr
[29] = Experiment condition (IV): Exo-FBS, HT1080 culture Present, only centrifugation, Reaction 4 hr
[30] = Experiment condition (IV): Exo-FBS, HT1080 culture Present, only centrifugation, Reaction 24 hr
[31] = Experiment condition (IX): MEM culture medium, HT1080 culture Absent, Reaction 4 hr
[32] = Experiment condition (IX): MEM culture medium, HT1080 culture Absent, Reaction 24 hr
[33] = Experiment condition (V): Exo-FBS, HT1080 culture Present, centrifugation + filtration, Reaction 4 hr
[34] = Experiment condition (V): Exo-FBS, HT1080 culture Present, centrifugation + filtration, Reaction 24 hr
[35] = Experiment condition (VI): Exo-FBS culture medium, HT1080 culture Absent, Reaction 4 hr
[36] = Experiment condition (VI): Exo-FBS culture medium, HT1080 culture Absent, Reaction 24 hr
[37] = Experiment condition (VII): MEM, HT1080 culture Present, only centrifugation, Reaction 4 hr
[38] = Experiment condition (VII): MEM, HT1080 culture Present, only centrifugation, Reaction 24 hr
[39] = Experiment condition (VIII): MEM, HT1080 culture Present, centrifugation + filtration, Reaction 4 hr
[40] = Experiment condition (VIII): MEM, HT1080 culture Present, centrifugation + filtration, Reaction 24 hr

[5-FAM]GRIGFLRTAK(TQ2)[OH] (5FAM-GRIGFLRTAK(TQ2)-OH) [Custom #1]
MMP14 active component concentration ([1]; Experiment condition (I): FBS, only centrifugation, Reaction 4 hr): 3.611e+11 mL⁻¹ | MMP14 active component concentration ([1]; Experiment condition (I): FBS, only centrifugation, Reaction 24 hr): 3.753e+11 mL⁻¹ | MMP14 active component concentration ([1]; Experiment condition (II): FBS, centrifugation + filtration, Reaction 4 hr): 3.042e+11 mL⁻¹ | MMP14 active component concentration ([1]; Experiment condition (II): FBS, centrifugation + filtration, Reaction 24 hr): 3.0889e+11 mL⁻¹ | MMP14 active component concentration ([1]; Experiment condition (IV): Exo-FBS, only centrifugation, Reaction 4 hr): 2.013e+11 mL⁻¹ | MMP14 active component concentration ([1]; Experiment condition (IV): Exo-FBS, only centrifugation, Reaction 24 hr): 1.981e+11 mL⁻¹ | MMP14 active component concentration ([1]; Experiment condition (V): Exo-FBS, centrifugation + filtration, Reaction 4 hr): 2.275e+11 mL⁻¹ | MMP14 active component concentration ([1]; Experiment condition (V): Exo-FBS, centrifugation + filtration, Reaction 24 hr): 2.309e+11 mL⁻¹ | MMP14 active component concentration ([1]; Experiment condition (VII): MEM, only centrifugation, Reaction 4 hr): 1.341e+09 mL⁻¹ | MMP14 active component concentration ([1]; Experiment condition (VII): MEM, only centrifugation, Reaction 24 hr): 4.02e+09 mL⁻¹ | MMP14 active component concentration ([1]; Experiment condition (VIII): MEM, centrifugation + filtration, Reaction 4 hr): 2.057e+09 mL⁻¹ | MMP14 active component concentration ([1]; Experiment condition (VIII): MEM, centrifugation + filtration, Reaction 24 hr): 4.426e+09 mL⁻¹ | MMP14 extracellular vesicle concentration [1, 3]: 1.39e+11 mL⁻¹ | MMP14 extracellular vesicle concentration [1, 4]: 2.053e+11 mL⁻¹ | MMP14 extracellular vesicle concentration [1, 5]: 1.885e+09 mL⁻¹ | MMP14 extracellular vesicle concentration [1, 6]: 4.428e+09 mL⁻¹ | MMP14 extracellular vesicle concentration [1, 7]: 1.1833e+10 mL⁻¹ | MMP14 extracellular vesicle concentration [1, 8]: 2.8135e+10 mL⁻¹ | MMP14 extracellular vesicle concentration [1, 9]: 5.6859e+10 mL⁻¹ | MMP14 extracellular vesicle concentration [1, 10]: 5.8114e+10 mL⁻¹ | MMP14 extracellular vesicle concentration [1, 11]: 5.8598e+10 mL⁻¹ | MMP14 extracellular vesicle concentration [1, 12]: 5.2408e+10 mL⁻¹ | MMP14 extracellular vesicle concentration [1, 13]: 7.8483e+10 mL⁻¹ | MMP14 extracellular vesicle concentration [1, 14]: 1.2532e+11 mL⁻¹ | MMP14 extracellular vesicle concentration [1, 15]: 1.5912e+10 mL⁻¹ | MMP14 extracellular vesicle concentration [1, 16]: 7.493e+09 mL⁻¹ | MMP14 extracellular vesicle concentration [1, 17]: 6.37e+09 mL⁻¹ | MMP14 extracellular vesicle concentration [1, 18]: 7.04e+08 mL⁻¹ | MMP14 extracellular vesicle concentration [1, 19]: 4.42e+08 mL⁻¹ | MMP14 extracellular vesicle concentration [1, 20]: 4.64e+08 mL⁻¹ | MMP14 extracellular vesicle concentration [1, 21]: 9.78e+08 mL⁻¹ | MMP14 extracellular vesicle concentration [1, 22]: 3e+07 mL⁻¹ | original concentration in the culture supernatant ([2]; Exo-FBS): 9.3259e+09 mL⁻¹ | amount of the extracellular vesicles in the fraction (0.7 mL) ([2]; Fraction #7 of the MEM): 1.114×10^10 | amount of the extracellular vesicles in the fraction (0.7 mL) ([2]; Fraction #8 of the Exo-FBS): 0.8283×10^10 | amount of the extracellular vesicles in the fraction (0.7 mL) ([2]; Fraction #8 of the MEM): 0.5245×10^10 | amount of the extracellular vesicles in the fraction (0.7 mL) ([2]; Fraction #9 of the Exo-FBS): 1.969×10^10 | original concentration in the culture supernatant ([2]; MEM): 5.4612e+09 mL⁻¹ | Expected value λ [2, 23]: 0.9029 | Number of positives [2, 23]: 16,696 | Positive ratio [2, 23]: 0.5946 | Expected value λ [2, 24]: 0.9382 | Number of positives [2, 24]: 17,091 | Positive ratio [2, 24]: 0.6087 | Expected value λ [2, 25]: 0.7605 | Number of positives [2, 25]: 14,954 | Positive ratio [2, 25]: 0.5325 | Expected value λ [2, 26]: 0.7723 and 0.7722 | Number of positives [2, 26]: 15,051 | Positive ratio [2, 26]: 0.538 | Expected value λ [2, 27]: 0.6588 | Number of positives [2, 27]: 13,549 | Positive ratio [2, 27]: 0.4825 | Expected value λ [2, 28]: 0.686 | Number of positives [2, 28]: 13,900 | Positive ratio [2, 28]: 0.4964 | Expected value λ [2, 29]: 0.5033 | Number of positives [2, 29]: 11,105 | Positive ratio [2, 29]: 0.3955 | Expected value λ [2, 30]: 0.4954 | Number of positives [2, 30]: 10,939 | Positive ratio [2, 30]: 0.3906 | Expected value λ [2, 31]: 0.00011 | Number of positives [2, 31]: 3 | Positive ratio [2, 31]: 0.00011 | Expected value λ [2, 32]: 0.00014 | Number of positives [2, 32]: 4 | Positive ratio [2, 32]: 0.00014 | Expected value λ [2, 33]: 0.5687 | Number of positives [2, 33]: 12,180 | Positive ratio [2, 33]: 0.4338 | Expected value λ [2, 34]: 0.5771 | Number of positives [2, 34]: 12,313 | Positive ratio [2, 34]: 0.4385 | Expected value λ [2, 35]: 0.6217 | Number of positives [2, 35]: 12,998 | Positive ratio [2, 35]: 0.4629 | Expected value λ [2, 36]: 0.6019 | Number of positives [2, 36]: 12,698 | Positive ratio [2, 36]: 0.4522 | Expected value λ [2, 37]: 0.00335 | Number of positives [2, 37]: 94 | Positive ratio [2, 37]: 0.00335 | Expected value λ [2, 38]: 0.01005 | Number of positives [2, 38]: 280 | Positive ratio [2, 38]: 0.01005 | Expected value λ [2, 39]: 0.00514 | Number of positives [2, 39]: 144 | Positive ratio [2, 39]: 0.00513 | Expected value λ [2, 40]: 0.01107 | Number of positives [2, 40]: 309 | Positive ratio [2, 40]: 0.01107 | Expected value λ [2, 3]: 0.3476 | Number of positives [2, 3]: 8,245 | Positive ratio [2, 3]: 0.2936 | Expected value λ [2, 4]: 0.5132 | Number of positives [2, 4]: 11,272 | Positive ratio [2, 4]: 0.4014 | Expected value λ [2, 5]: 0.00471 | Number of positives [2, 5]: 132 | Positive ratio [2, 5]: 0.0047 | Expected value λ [2, 6]: 0.01107 | Number of positives [2, 6]: 308 | Positive ratio [2, 6]: 0.01101 | Expected value λ [2, 7]: 0.2958 | Number of positives [2, 7]: 7,164 | Positive ratio [2, 7]: 0.2561 | Expected value λ [2, 8]: 0.7034 | Number of positives [2, 8]: 14,130 | Positive ratio [2, 8]: 0.5051 | Expected value λ [2, 9]: 1.421 | Number of positives [2, 9]: 21,264 | Positive ratio [2, 9]: 0.7586 | Expected value λ [2, 10]: 1.453 | Number of positives [2, 10]: 21,512 | Positive ratio [2, 10]: 0.7661 | Expected value λ [2, 11]: 1.465 | Number of positives [2, 11]: 21,591 | Positive ratio [2, 11]: 0.7689 | Expected value λ [2, 12]: 1.3102 | Number of positives [2, 12]: 20,505 | Positive ratio [2, 12]: 0.7302 | Expected value λ [2, 13]: 1.962 | Number of positives [2, 13]: 24,077 | Positive ratio [2, 13]: 0.8594 | Expected value λ [2, 14]: 3.133 | Number of positives [2, 14]: 26,856 | Positive ratio [2, 14]: 0.9564 | Expected value λ [2, 15]: 0.3978 | Number of positives [2, 15]: 9,216 | Positive ratio [2, 15]: 0.3282 | Expected value λ [2, 16]: 0.1873 | Number of positives [2, 16]: 4,791 | Positive ratio [2, 16]: 0.1708 | Expected value λ [2, 17]: 0.1593 | Number of positives [2, 17]: 4,129 | Positive ratio [2, 17]: 0.1472 | Expected value λ [2, 18]: 0.0176 | Number of positives [2, 18]: 490 | Positive ratio [2, 18]: 0.01745 | Expected value λ [2, 19]: 0.01104 | Number of positives [2, 19]: 308 | Positive ratio [2, 19]: 0.01098 | Expected value λ [2, 20]: 0.01161 | Number of positives [2, 20]: 324 | Positive ratio [2, 20]: 0.01154 | Expected value λ [2, 21]: 0.02444 | Number of positives [2, 21]: 678 | Positive ratio [2, 21]: 0.02415 | Expected value λ [2, 22]: 0.00075 | Number of positives [2, 22]: 21 | Positive ratio [2, 22]: 0.00075
